Experimental data from ChEMBL document CHEMBL2311518 (J Med Chem, 2013).
Where “and” joins values, the source holds several entries; their conditions need not be identical. Equal entries are not always repeated. Calls of active or inactive are those of the source. The calls are words filed in the database; no cut-off is given here.

Tests used:
[1] = biological target: T1, Neuronal acetylcholine receptor; alpha3/beta4 (Rattus norvegicus, UniProt P04757+P12392); experiment: biochemical
Description: Displacement of [3H]epibatidine from rat recombinant alpha3beta4 nAChR expressed in HEK293 cells after 4 hrs by scintillation counting analysis

[2] = biological target: Neuronal acetylcholine receptor; alpha4/beta4 (Rattus norvegicus, UniProt P09483+P12392); experiment: biochemical
Chain of Neuronal acetylcholine receptor; alpha4/beta4 (P09483 whole entry): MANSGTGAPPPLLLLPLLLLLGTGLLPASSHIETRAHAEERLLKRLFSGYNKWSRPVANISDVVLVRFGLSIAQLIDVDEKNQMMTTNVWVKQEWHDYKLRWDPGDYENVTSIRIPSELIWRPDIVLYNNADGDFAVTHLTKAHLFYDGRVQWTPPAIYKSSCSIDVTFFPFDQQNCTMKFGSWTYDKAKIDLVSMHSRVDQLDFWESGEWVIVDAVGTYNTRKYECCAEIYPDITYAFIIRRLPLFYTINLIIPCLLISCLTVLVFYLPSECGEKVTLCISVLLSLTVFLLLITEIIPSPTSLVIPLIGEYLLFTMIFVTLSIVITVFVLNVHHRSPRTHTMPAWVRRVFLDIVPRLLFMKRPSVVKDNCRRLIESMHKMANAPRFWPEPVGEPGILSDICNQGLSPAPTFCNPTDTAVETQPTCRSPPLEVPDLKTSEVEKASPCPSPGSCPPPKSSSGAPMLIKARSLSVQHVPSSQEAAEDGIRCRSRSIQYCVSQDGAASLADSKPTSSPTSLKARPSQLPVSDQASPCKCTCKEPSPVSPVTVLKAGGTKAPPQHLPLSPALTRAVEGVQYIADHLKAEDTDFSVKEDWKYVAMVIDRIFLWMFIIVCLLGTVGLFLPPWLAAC
Chain of Neuronal acetylcholine receptor; alpha4/beta4 (P12392 whole entry): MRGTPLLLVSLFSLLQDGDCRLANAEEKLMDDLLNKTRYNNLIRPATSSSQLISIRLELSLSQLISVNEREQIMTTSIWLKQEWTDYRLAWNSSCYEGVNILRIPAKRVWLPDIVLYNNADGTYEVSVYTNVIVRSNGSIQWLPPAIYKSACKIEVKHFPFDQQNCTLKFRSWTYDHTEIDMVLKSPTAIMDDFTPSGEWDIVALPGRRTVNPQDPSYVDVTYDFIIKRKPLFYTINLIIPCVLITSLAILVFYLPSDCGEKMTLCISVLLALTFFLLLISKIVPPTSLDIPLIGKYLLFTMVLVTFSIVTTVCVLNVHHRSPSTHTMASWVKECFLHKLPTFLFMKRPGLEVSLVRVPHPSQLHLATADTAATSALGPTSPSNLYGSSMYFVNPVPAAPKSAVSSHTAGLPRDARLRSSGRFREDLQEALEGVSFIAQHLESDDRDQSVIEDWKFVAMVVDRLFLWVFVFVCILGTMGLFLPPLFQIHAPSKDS
Description: Displacement of [3H]epibatidine from rat recombinant alpha4beta4 nAChR expressed in HEK293 cells after 4 hrs by scintillation counting analysis

[3] = biological target: T1, Neuronal acetylcholine receptor; alpha3/beta4
Description: Agonist activity at rat alpha3beta4 nAChR expressed in HEK293 cells after 30 mins by FLIPR membrane potential blue assay

[4] = biological target: T2, Neuronal acetylcholine receptor; alpha4/beta2 (Homo sapiens, UniProt P17787+P43681)
T2 sequence (P17787 whole entry): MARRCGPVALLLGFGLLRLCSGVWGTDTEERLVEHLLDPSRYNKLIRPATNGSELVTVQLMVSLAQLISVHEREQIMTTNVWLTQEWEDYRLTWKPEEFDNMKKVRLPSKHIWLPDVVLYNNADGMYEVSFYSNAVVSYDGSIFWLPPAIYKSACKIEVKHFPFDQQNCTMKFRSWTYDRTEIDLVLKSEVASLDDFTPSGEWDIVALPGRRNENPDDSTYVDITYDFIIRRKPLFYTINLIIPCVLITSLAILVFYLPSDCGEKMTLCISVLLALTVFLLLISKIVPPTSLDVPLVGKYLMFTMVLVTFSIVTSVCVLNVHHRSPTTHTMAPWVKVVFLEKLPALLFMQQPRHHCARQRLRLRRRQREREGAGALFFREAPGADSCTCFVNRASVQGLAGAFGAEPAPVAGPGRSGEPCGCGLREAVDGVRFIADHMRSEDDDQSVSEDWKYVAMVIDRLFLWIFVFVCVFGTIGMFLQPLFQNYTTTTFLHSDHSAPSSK
T2 sequence (P43681 whole entry): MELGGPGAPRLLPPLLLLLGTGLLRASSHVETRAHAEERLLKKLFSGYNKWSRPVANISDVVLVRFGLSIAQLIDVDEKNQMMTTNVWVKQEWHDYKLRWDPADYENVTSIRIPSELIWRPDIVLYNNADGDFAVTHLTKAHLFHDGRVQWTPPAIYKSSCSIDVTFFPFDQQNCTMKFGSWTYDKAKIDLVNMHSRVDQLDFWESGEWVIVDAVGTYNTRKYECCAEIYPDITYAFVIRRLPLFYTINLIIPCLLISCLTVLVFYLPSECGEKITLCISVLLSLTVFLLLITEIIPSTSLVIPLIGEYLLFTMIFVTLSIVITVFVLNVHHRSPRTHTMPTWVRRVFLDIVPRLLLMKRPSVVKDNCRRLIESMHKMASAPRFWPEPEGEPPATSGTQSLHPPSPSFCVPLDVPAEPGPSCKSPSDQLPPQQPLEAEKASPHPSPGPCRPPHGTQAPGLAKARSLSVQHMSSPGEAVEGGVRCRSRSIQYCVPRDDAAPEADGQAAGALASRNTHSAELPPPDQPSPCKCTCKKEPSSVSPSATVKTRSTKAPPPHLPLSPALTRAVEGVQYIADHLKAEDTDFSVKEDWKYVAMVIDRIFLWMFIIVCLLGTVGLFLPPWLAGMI
Description: Partial agonist activity at human 2:3 alpha4beta2 nAChR expressed in Xenopus laevis oocytes after 1 min by two electrode voltage clamp technique

[5] = biological target: Neuronal acetylcholine receptor; alpha4/beta2 (Rattus norvegicus, UniProt P09483+P12390); experiment: biochemical
Chain of Neuronal acetylcholine receptor; alpha4/beta2 (Rattus norvegicus, UniProt P09483+P12390) (P09483 whole entry): as the sequence (P09483 whole entry) above
Chain of Neuronal acetylcholine receptor; alpha4/beta2 (Rattus norvegicus, UniProt P09483+P12390) (P12390 whole entry): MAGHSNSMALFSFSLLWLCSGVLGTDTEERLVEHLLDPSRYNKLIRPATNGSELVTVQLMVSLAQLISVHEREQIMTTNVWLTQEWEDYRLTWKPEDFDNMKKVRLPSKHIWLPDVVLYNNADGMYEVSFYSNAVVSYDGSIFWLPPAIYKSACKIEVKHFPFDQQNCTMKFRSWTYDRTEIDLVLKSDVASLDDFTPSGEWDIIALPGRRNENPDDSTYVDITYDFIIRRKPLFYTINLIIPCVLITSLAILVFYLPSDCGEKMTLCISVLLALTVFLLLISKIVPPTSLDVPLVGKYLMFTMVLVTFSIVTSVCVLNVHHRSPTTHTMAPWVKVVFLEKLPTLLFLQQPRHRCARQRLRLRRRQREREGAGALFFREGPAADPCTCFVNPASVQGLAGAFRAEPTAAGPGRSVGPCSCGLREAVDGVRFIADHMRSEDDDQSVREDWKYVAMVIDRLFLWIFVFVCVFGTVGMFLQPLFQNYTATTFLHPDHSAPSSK
Description: Displacement of [3H]epibatidine from rat recombinant alpha4beta2 nAChR expressed in HEK293 cells after 4 hrs by scintillation counting analysis

[6] = biological target: Neuronal acetylcholine receptor subunit alpha-7 (Rattus norvegicus, UniProt Q05941); conditions: tsa-201
Chain of Neuronal acetylcholine receptor subunit alpha-7 (Q05941 23-502 limits assumed): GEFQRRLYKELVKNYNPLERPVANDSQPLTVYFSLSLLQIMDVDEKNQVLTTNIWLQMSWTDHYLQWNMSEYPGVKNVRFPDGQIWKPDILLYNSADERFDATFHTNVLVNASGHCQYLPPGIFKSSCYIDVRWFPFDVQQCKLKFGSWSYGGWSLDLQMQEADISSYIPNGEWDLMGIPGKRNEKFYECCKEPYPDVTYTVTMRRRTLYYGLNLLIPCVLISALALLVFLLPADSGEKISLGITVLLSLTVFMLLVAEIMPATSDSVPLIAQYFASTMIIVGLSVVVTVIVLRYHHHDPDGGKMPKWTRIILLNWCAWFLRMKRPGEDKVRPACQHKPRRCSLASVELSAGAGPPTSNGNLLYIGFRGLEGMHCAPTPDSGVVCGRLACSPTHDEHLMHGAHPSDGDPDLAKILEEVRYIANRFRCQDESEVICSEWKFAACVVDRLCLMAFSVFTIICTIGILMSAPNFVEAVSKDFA
Description: Displacement of [3H]MLA from rat nAChR alpha7 linked to ion channel portion of 5-HT3A receptor expressed in human tsA-201 cells after 2.5 hrs by scintillation counting analysis

[7] = biological target: Acetylcholine-binding protein (Lymnaea stagnalis, UniProt P58154); conditions: hek293
Chain of Acetylcholine-binding protein (P58154 20-229 limits assumed): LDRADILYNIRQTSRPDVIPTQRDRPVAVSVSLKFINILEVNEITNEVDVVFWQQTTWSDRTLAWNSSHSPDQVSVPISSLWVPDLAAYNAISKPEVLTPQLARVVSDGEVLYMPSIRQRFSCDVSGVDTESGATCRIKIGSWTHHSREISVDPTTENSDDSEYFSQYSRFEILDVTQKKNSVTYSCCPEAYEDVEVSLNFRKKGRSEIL
Description: Displacement of [3H]epibatidine from Lymnaea stagnalis AChBP linked to ion channel portion of 5-HT3A receptor expressed in HEK293 cells after 4 hrs by scintillation counting analysis

[8] = biological target: T2, Neuronal acetylcholine receptor; alpha4/beta2; remark: listed apart in the source
Description: Agonist activity at human 3:2 alpha4beta2 nAChR expressed in Xenopus laevis oocytes after 1 min by two electrode voltage clamp technique

[9] = biological target: Neuronal acetylcholine receptor; alpha3/beta4 (Rattus norvegicus) (UniProt P04757+P12392); experiment: Modulation of rat alpha3beta4 nAChR expressed in HEK293 cells up to 1000 uM after 30 mins by FLIPR membrane potential blue assay; format: cell-based

T1 sequence (P04757 whole entry): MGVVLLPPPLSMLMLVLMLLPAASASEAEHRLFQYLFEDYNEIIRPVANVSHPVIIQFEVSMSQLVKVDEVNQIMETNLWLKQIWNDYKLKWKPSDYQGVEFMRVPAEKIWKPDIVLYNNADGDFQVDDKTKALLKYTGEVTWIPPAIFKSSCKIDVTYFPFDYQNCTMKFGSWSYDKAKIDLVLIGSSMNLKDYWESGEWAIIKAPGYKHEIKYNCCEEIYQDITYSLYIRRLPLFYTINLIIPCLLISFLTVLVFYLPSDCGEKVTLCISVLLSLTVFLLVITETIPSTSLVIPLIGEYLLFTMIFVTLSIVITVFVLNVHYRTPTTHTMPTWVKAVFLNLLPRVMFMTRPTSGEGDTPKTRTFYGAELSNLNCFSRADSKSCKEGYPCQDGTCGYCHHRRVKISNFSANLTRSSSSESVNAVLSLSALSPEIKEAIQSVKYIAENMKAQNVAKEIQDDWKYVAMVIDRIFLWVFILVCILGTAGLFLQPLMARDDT
T1 sequence (P12392 whole entry): as the sequence (P12392 whole entry) above

SMILES | Ki [1] | Ki [2] | EC50 [3] | EC50 [4] | Ki [5] | Ki [6] | pKi [6] | Ki [7] | pKi [7] | EC50 [8] | Activity [9]
C[C@H](CCOC(=O)N(C)C)N(C)C | 0.42 µM | 0.15 µM | 11 µM | 0.72 µM | 0.02 µM | > 1000 µM | < 3 | 0.079 µM | 7.1 | 15.8 µM and 14 µM | –
C[C@H](CCOc1cnccn1)N(C)C | 42 µM | 8.3 µM | – | – | 0.24 µM | – | – | – | – | – | –
C[C@H](CCOc1cccnc1)N(C)C | 4.9 µM | 8.3 µM | – | – | 0.03 µM | – | – | – | – | – | –
Cc1cn(C)c(OCC[C@@H](C)N(C)C)n1 | 24 µM | 50 µM | – | 19 µM | 0.28 µM | > 1000 µM | < 3 | 1.5 µM | 5.82 | 34 µM | inactive
C[C@H](CCOc1nc(Br)cn1C)N(C)C | 300 µM | 50 µM | – | – | 0.12 µM | 1000 µM | 3 | – | – | – | –
C[C@H](CCOc1nccs1)N(C)C | 4.7 µM | 1.8 µM | – | – | 0.013 µM | – | – | – | – | – | –
C[C@H](CCOn1cccn1)N(C)C | 8.1 µM | 11 µM | – | – | 0.018 µM | – | – | – | – | – | –
